Test results: patent US10800741B2 (ANCUREALL PHARMACEUTICAL (SHANGHAI) CO., LTD., priority 2017, dated 2020)

What was measured:
Type in all cases: cell-based, Human
[1] = system: H1581 (FGFR1 amp); assay: In vitro growth inhibition of H1581 tumor cells (MTT/CCK8); conditions: Homo sapiens, NCI-H1581; in vitro growth inhibition (or induction of apoptosis), cells cultured 3 to 5 days, MTT (CCK8); read-out: IC50 H1581 (FGFR1 amp)
[2] = system: KATO III (FGFR2 amp); assay: In vitro growth inhibition of KATO III tumor cells (MTT/CCK8); conditions: Homo sapiens, KATO III; in vitro growth inhibition (or induction of apoptosis), cells cultured 3 to 5 days, MTT (CCK8); read-out: IC50 KATO III (FGFR2 amp)
[3] = system: Hep3B2 (FGFR3/4+++); assay: In vitro growth inhibition of Hep3B2 tumor cells (MTT/CCK8); conditions: Homo sapiens, Hep3B; in vitro growth inhibition (or induction of apoptosis), cells cultured 3 to 5 days, MTT (CCK8); read-out: IC50 Hep3B2 (FGFR3/4+++)
Description: (§1) Tumor cell lines are an effective model for studying in vitro tumor growth inhibition. In the present invention, a representative tumor cell line was selected to determine the cell growth inhibition activity of the present compound. All cell lines used were from ATCC, DSMZ, and cell banks of the Chinese Academy of Sciences. Cell culture conditions and methods were in accordance with the requirements of each cell line. Cells were subcultured in vitro for no more than 3 generations each time, and as required, single-clone purification and identification of cell lines could be carried out.
(§2) The cell culture media used were RPMI1640 (Gibco), DMEM (Gibco), MEM (Gibco), L15 (Gibco), IMDM (Gibco), McCOY'S5A, and William's (Gibco). 5-20% fetal bovine serum (Gibco), 1% double antibiotic, 2 mM glutamine, or 1 mM sodium pyruvate were added. The names, species, major gene characteristics, culture media and cell sources of the cell lines used are shown in table 1, wherein “amp” refers to gene amplification. “+++” refers to gene overexpression. The main genetic characteristics of cells were obtained from the COSMIC Cell Lines Project and related research papers, respectively.
(§3) Adherent cells were digested with 0.25% trypsin-EDTA (Gibco). Suspension culture cells were collected by centrifugation (1700 rpm, 3 minutes). The supernatant was discarded and the cells were counted. According to each cell growth cycle, different concentrations of cells were prepared (5˜10×10^4 cells per ml), and inoculated to 96-well plates (Corning), with 100 μl per well, and incubated overnight at 37° C., 5% CO2. The next day, the test compound was added to the cultured cells (2 wells in parallel). The final concentration of the solvent was less than 1/1,000. The cells were further cultured for 3 to 5 days and assayed by MTT.
(§4) The compound was stored at a concentration of 10 mM at −20° C. and diluted to 2- or 10-fold series prior to use. BGJ398 and AC220 were synthesized according to the methods of WO2006420A1 and US2007232604A1, respectively.
(§5) The adherent cells were taken out from the cell culture medium, and immediately added to a freshly prepared complete medium containing 10% CCK8 (5% FBS), 100 ul per hole. The suspended cells were directly added to a CCK8 reagent until reaching a final concentration of 10% and cultured for 1 to 4 hours.
(§6) T=optical density of drug-treated cell wells−optical density of blank control wells; T0=optical density of cell wells before drug treatment−optical density of blank control wells; C=optical density of solvent control wells−optical density of blank control wells. […] The experiments were repeated 1 to 3 times and a statistical analysis of data was conducted.

[4] = system: MOLM-13 (FLT3-ITD); assay: In vitro growth inhibition of MOLM-13 tumor cells (MTT/CCK8); conditions: Homo sapiens, MOLM-13; in vitro growth inhibition (or induction of apoptosis), cells cultured 3 to 5 days, MTT (CCK8); read-out: IC50 MOLM-13 (FLT3-ITD)
[5] = system: KCL-22 (BCR-ABL); assay: In vitro growth inhibition of KCL-22 tumor cells (MTT/CCK8); conditions: Homo sapiens, KCL-22; in vitro growth inhibition (or induction of apoptosis), cells cultured 3 to 5 days, MTT (CCK8); read-out: IC50 KCL-22 (BCR-ABL)
Description: as §1, §2, §3, §4, §5, §6

[6] = system: Kasumi-1 (KIT N822K); assay: In vitro growth inhibition of Kasumi-1 tumor cells (MTT/CCK8); conditions: Homo sapiens, Kasumi 1; in vitro growth inhibition (or induction of apoptosis), cells cultured 3 to 5 days, MTT (CCK8); read-out: IC50 Kasumi-1 (KIT N822K)
Description: as §1, §2, §3, §4, §5, §6

[7] = system: H1703 (PDGFRa amp); assay: In vitro growth inhibition of H1703 tumor cells (MTT/CCK8); conditions: Homo sapiens, NCI-H1703; in vitro growth inhibition (or induction of apoptosis), cells cultured 3 to 5 days, MTT (CCK8); read-out: IC50 H1703 (PDGFRa amp)
Description: as §1, §2, §3, §4, §5, §6

[8] = system: Karpas 299 (NPM-ALK); assay: In vitro growth inhibition of Karpas 299 tumor cells (MTT/CCK8); conditions: Homo sapiens, KARPAS-299; in vitro growth inhibition (or induction of apoptosis), cells cultured 3 to 5 days, MTT (CCK8); read-out: IC50 Karpas 299 (NPM-ALK)
Description: as §1, §2, §3, §4, §5, §6

`COc1cc2nccc(Oc3ccc(NC(=O)Nc4cc(C(C)(C)C)n[nH]4)cc3C)c2cc1NC(C)=O` [Compound 103, N-(4-{4-[3-(5-tert-butyl-2H-pyrazol-3-yl)-ureido]-2-methyl-phenoxy}-7-methoxy-quinolin-6-yl)-acetamide] showed an IC50 [1] of 24.2 nM, an IC50 [2] of 4.17 nM and an IC50 [3] of 191 nM. For the same compound, the IC50 [4] was 0.15 nM, the IC50 [5] was 12.1 nM and the IC50 [6] was 14.6 nM. It also gave an IC50 [7] of 86.7 nM and an IC50 [8] of 350 nM.

With `COc1cc2nccc(Oc3ccc(NC(=O)N(C)c4cc(C(C)(C)C)on4)c(Cl)c3)c2cc1C(N)=O` [Compound 12, 4-{4-[3-(5-tert-butyl-isoxazol-3-yl)-3-methyl-ureido]-3-chloro-phenoxy}-7-methoxyquinolin-6-carboxamide] the IC50 [1] was 584 nM, the IC50 [2] was 103 nM and the IC50 [3] was 791 nM. It also gave an IC50 [4] of 122 nM, an IC50 [5] of 114 nM and an IC50 [6] of 389 nM. The IC50 [7] was 139 nM and the IC50 [8] was greater than 1000 nM.

For `CNC(=O)c1cc2c(Oc3ccc(NC(=O)Nc4cc(C(C)(C)C)nn4C)cc3Cl)ccnc2cc1OC` [Compound 55, 4-{4-[3-(5-tert-butyl-2-methyl-2H-pyrazol-3-yl)-ureido]-2-chloro-phenoxy}-7-methoxy quinolin-6-carboxylic acid methylamide], the IC50 [1] was 79.9 nM, the IC50 [2] was 2.96 nM and the IC50 [3] was 157 nM. It also gave an IC50 [4] of 1.16 nM, an IC50 [5] of 57 nM and an IC50 [6] of 91.8 nM. It also gave an IC50 [7] of 83.3 nM and an IC50 [8] of 160 nM.

With `COc1cc2nccc(Oc3ccc(NC(=O)Nc4cc(C5CC5)n[nH]4)c(Cl)c3)c2cc1C(N)=O` [Compound 41, 4-{3-chloro-4-[3-(5-cyclopropyl-2H-pyrazol-3-yl)-ureido]-phenoxy}-7-methoxyquinolin-6-carboxamide] the IC50 [1] was 450 nM, the IC50 [2] was 40.1 nM and the IC50 [3] was 514 nM. The IC50 [4] was 134 nM, the IC50 [5] was 353 nM and the IC50 [6] was 736 nM. It also gave an IC50 [7] of 124 nM and an IC50 [8] greater than 1000 nM.

With `CCC(=O)Nc1cc2c(Oc3ccc(NC(=O)Nc4cc(C(C)(C)C)on4)c(Cl)c3)ccnc2cc1OC` [Compound 21, N-(4-{4-[3-(5-tert-butyl-isoxazol-3-yl)-ureido]-3-chloro-phenoxy}-7-methoxyquinolin-6-yl)-propionamide] the IC50 [1] was 17.4 nM, the IC50 [2] was 2.8 nM and the IC50 [3] was 37.5 nM. It also gave an IC50 [4] of 7.07 nM, an IC50 [5] of 26.6 nM and an IC50 [6] of 88.9 nM. It also gave an IC50 [7] of 157 nM and an IC50 [8] of 398 nM.

Compound `COc1cc2nccc(Oc3ccc(NC(=O)Nc4cc(C(C)(C)C)n[nH]4)c(C(F)(F)F)c3)c2cc1C(N)=O` [Compound 33, 4-{4-[3-(5-tert-butyl-2H-pyrazol-3-yl)-ureido]-3-trifluoromethyl-phenoxy}-7-methoxyquinolin-6-carboxamide] has an IC50 [1] of 49.8 nM, an IC50 [2] of 0.71 nM and an IC50 [3] of 130 nM. For the same compound, the IC50 [4] was 28.1 nM, the IC50 [5] was 25.7 nM and the IC50 [6] was 46.4 nM. For the same compound, the IC50 [7] was 73 nM and the IC50 [8] was 632 nM.

Compound `CCn1nc(C(C)(C)C)cc1NC(=O)Nc1ccc(Oc2ccnc3cc(OC)c(C(=O)NC)cc23)cc1Cl` [Compound 47] has an IC50 [1] of 4.93 nM, an IC50 [2] of 0.73 nM and an IC50 [3] of 39.3 nM. For the same compound, the IC50 [4] was 7.42 nM, the IC50 [5] was 9.38 nM and the IC50 [6] was 15.9 nM. It also gave an IC50 [7] of 14.7 nM and an IC50 [8] of 466 nM.

In the case of `CC(C)(C)c1cc(NC(=O)Nc2ccc(Oc3cc(C(F)(F)F)nc4ccccc34)cc2Cl)no1` [Compound 115, 1-(5-tert-butyl-isoxazol-3-yl)-3-[2-chloro-4-(2-trifluoromethyl-quinolin-4-yloxy)-phenyl]-urea], the IC50 [1] is reported as greater than 1000 nM, the IC50 [2] is reported as 746 nM and the IC50 [3] is reported as greater than 1000 nM. For the same compound, the IC50 [4] was greater than 1000 nM, the IC50 [5] was greater than 5000 nM and the IC50 [6] was greater than 1000 nM. For the same compound, the IC50 [7] was greater than 1000 nM and the IC50 [8] was greater than 1000 nM.

`CNC(=O)c1cc2c(Oc3ccc(NC(=O)Nc4cc(C(C)(C)C)nn4C4CCCC4)c(Cl)c3)ccnc2cc1OC` [Compound 48, 4-{4-[3-(5-tert-butyl-2-cyclopentyl-2H-pyrazol-3-yl)-ureido]-3-chloro-phenoxy}-7-methoxyquinolin-6-carboxylic acid methylamide] gave an IC50 [1] of 11.7 nM, an IC50 [2] of 1.36 nM and an IC50 [3] of 44.1 nM. The IC50 [4] was 11.6 nM, the IC50 [5] was 22.3 nM and the IC50 [6] was 35.7 nM. For the same compound, the IC50 [7] was 25.9 nM and the IC50 [8] was 502 nM.

`CNC(=O)c1cc2c(Oc3ccc(NC(=O)Nc4cc(C(C)(C)C)n[nH]4)c(C(F)(F)F)c3)ccnc2cc1OC` [Compound 51, 4-{4-[3-(5-tert-butyl-2H-pyrazol-3-yl)-ureido]-3-trifluoromethyl-phenoxy}-7-methoxyquinolin-6-carboxylic acid methylamide] showed an IC50 [1] of 51.4 nM, an IC50 [2] of 1.14 nM and an IC50 [3] of 88 nM. The IC50 [4] was 142 nM, the IC50 [5] was 13 nM and the IC50 [6] was 12.7 nM. The IC50 [7] was 48.4 nM and the IC50 [8] was 493 nM.

`CN(C)CCOc1cc2nccc(Oc3ccc(NC(=O)Nc4cc(C(C)(C)C)n[nH]4)c(Cl)c3)c2cc1C(N)=O` [Compound 83] showed an IC50 [1] of 92.9 nM, an IC50 [2] of 5.94 nM and an IC50 [3] of 150 nM. The IC50 [4] was 15.3 nM, the IC50 [5] was 190 nM and the IC50 [6] was 260 nM. For the same compound, the IC50 [7] was 59.5 nM and the IC50 [8] was 851 nM.

For `COc1cc2nccc(Oc3ccc(NC(=O)Nc4cc(C(C)(C)C)on4)c(Cl)c3)c2cc1NC(C)=O` [Compound 20], the IC50 [1] was 1.75 nM, the IC50 [2] was 1.14 nM and the IC50 [3] was 13.9 nM. The IC50 [4] was 2.21 nM, the IC50 [5] was 5.55 nM and the IC50 [6] was 22.1 nM. For the same compound, the IC50 [7] was 8.71 nM and the IC50 [8] was 195 nM.

For `CCOc1cc2ncc(C#N)c(Oc3ccc(NC(=O)Nc4cc(C(C)(C)C)n[nH]4)c(Cl)c3)c2cc1NC(C)=O` [Compound 68, N-(4-{4-[3-(5-tert-butyl-2H-pyrazol-3-yl)-ureido]-3-chloro-phenoxy}-3-cyano-7-ethoxy-quinolin-6-yl) acetamide], the IC50 [1] was greater than 1000 nM, the IC50 [2] was greater than 1000 nM and the IC50 [3] was greater than 1000 nM. For the same compound, the IC50 [4] was greater than 1000 nM, the IC50 [5] was greater than 1000 nM and the IC50 [6] was greater than 1000 nM. It also gave an IC50 [7] greater than 1000 nM and an IC50 [8] greater than 1000 nM.

Compound `COc1cc2nccc(Oc3ccc(NC(=O)Nc4cc(C(C)(C)C)n[nH]4)c(Cl)c3)c2cc1NC(C)=O` [Compound 63, N-(4-{4-[3-(5-tert-butyl-2H-pyrazol-3-yl)-ureido]-3-chloro-phenoxy}-7-methoxyquinolin-6-yl)-acetamide] has an IC50 [1] of 4.26 nM, an IC50 [2] of 0.31 nM and an IC50 [3] of 15.9 nM. For the same compound, the IC50 [4] was 3.12 nM, the IC50 [5] was 4.68 nM and the IC50 [6] was 8.81 nM. For the same compound, the IC50 [7] was 12 nM and the IC50 [8] was 113 nM.

With `COc1cc2nccc(Oc3ccc(NC(=O)Nc4cc(C(C)(C)C)nn4C)c(Cl)c3)c2cc1C(N)=O` [Compound 26, 4-{4-[3-(5-tert-butyl-2-methyl-2H-pyrazol-3-yl)-ureido]-3-chloro-phenoxy}-7-methoxyquinolin-6-carboxamide] the IC50 [1] was 9.78 nM, the IC50 [2] was 0.07 nM and the IC50 [3] was 10.9 nM. For the same compound, the IC50 [4] was 1.35 nM, the IC50 [5] was 5.16 nM and the IC50 [6] was 16.9 nM. It also gave an IC50 [7] of 8.2 nM and an IC50 [8] of 524 nM.
